Measured values reported in patent US11406694B2, “Vaccine comprising drug and parasite administration” (priority 2016, dated 2022).

What was measured:
Plasmodium parasite = test: Blood-stage infection of mice under daily doxycycline treatment (course of infection during infection/drug cure); assay type: in vivo
Method: The work described herein relates to giving mice and humans a blood stage malaria infection and daily doses of oral (human) or intraperitoneal (mice) doxycycline as a delayed death agent. This cycle can be repeated and we have given mice 1 or 3 cycles of infection/drug cure (IDC) with doxycycline.
Mice (BALB/c or C57/B6) received varying doses of Plasmodium parasite (10^5-10^7 trophozoite parasitised red blood cells; pRBC), administered via intravenous injection (200 μL). Mice were subsequently started on doxycycline treatment (doxycycline hydrate (Sigma) dissolved in 1× phosphate buffered saline, 50 mg/kg administered in ˜100 μL volume via intraperitoneal injection) approximately 1-2 hours post infection. Mice received treatment every day for 7 days. Subsequent infection and drug cures (IDCs) were administered 2 weeks from the day of last treatment (or 3 weeks between infections). Mice were challenged 4 weeks from the day of last treatment of the last round of IDC (or 5 weeks from last infection).
Blood smears were performed on D1, 2, 4 and 6 post infection during IDC 1, 2 and 3.

P. falciparum 7G8 = test: Blood stage P. falciparum infection of human volunteers under doxycycline, parasitaemia by qPCR; assay type: in vivo; conditions: two volunteers, 3×10^6 P. falciparum pRBC, 100 mg doxycycline once daily for 21 days
Method: FIG. 13: Persistence of P. falciparum 7G8 in volunteers receiving doxycycline chemoprophylaxis. […] Volunteers received 3×106 pRBCs on D0, followed by doxycycline treatment administered orally (100 mg/day) from D0 to D20.
We have also started human experiments. Initially we have given two volunteers a blood stage infection initiated with 3×10^6 magnet-purified P. falciparum trophozoite-parasitized human red cells (pRBC). At the same time, volunteers were administered 100 mg doxycycline once daily for 21 days, although this could be changed to twice daily. A controlled release form of doxycycline (such as Atridox® comprising doxycycline hyclate) will also be tested.
Parasite concentration is determined whereby the log10 of each known concentration of a standard concentration range is plotted against the quantification cycle of Cq values of the test samples in a linear regression model (y=mx+b) using Biorad CFX manager 2.1 software.

C[C@H]1c2cccc(O)c2C(=O)C2=C(O)[C@]3(O)C(=O)C(C(N)=O)=C(O)[C@@H](N(C)C)[C@@H]3[C@@H](O)[C@@H]21 [doxycycline]
time the infection takes to clear (Plasmodium parasite; 10^5-10^7 pRBC i.v., doxycycline 50 mg/kg i.p. daily for 7 days): approximately 4 days
condition of the mice during the infection (Plasmodium parasite; pRBC i.v. with doxycycline 50 mg/kg i.p. daily for 7 days): remain well
illness of the volunteers (P. falciparum 7G8): did not become ill
